# Data reported in article PMC3073003, “Peptide-Modified Surfaces for Enzyme Immobilization” (PLoS ONE, 2011).
# Ends that are not written are not given here.
# Key:
# β-galactosidase (β-Gal) [1] = target: T1, β-galactosidase (β-Gal) (Escherichia coli, UniProt P00722); type: binding, E. coli; set-up: biotin (chemical label by Sulfo-NHS-biotin on amines, about two per enzyme); purchased Sigma (St. Louis, MO); conditions: for Binding affinity (Norm.): β-Gal bound to surface-modified microwells, 25 nM biotin-labeled β-Gal, ELISA, normalized to amine surface 8
# Description: (§1) Peptides were conjugated to aminated microwell surfaces through the specific reaction between C-terminal cysteines and the maleimide-activated surfaces, as shown in Figure 1a. […] The microwell plate was then briefly washed with pure water three times. […] The reaction was incubated for 4 hours at room temperature, in the dark. After the conjugation reaction was complete, the microwells were washed for 5 minutes in 1× TBST, three times, followed by three washes in water. To immobilize the enzyme on peptide-modified surfaces, 30 µL of 25 nM biotin-labeled β-Gal was incubated in the peptide-modified microwells for two hours in 10 mM phosphate buffer, pH 7.3 with 100 µM MgCl2 and 0.05% Tween 20 (v/v%), at room temperature. The microwells were washed for 5 minutes in 1× TBST, three times, followed by three washes in phosphate buffer. […] Figures S8–10 in File S1 show the detailed optimization procedures for peptide-modified surfaces.
# (§2) First, 30 µL of 2 mg/mL BS^3 prepared in 1× PBS, pH 7.4 was incubated with the aminated microwells for half an hour. Then, the microwells were briefly washed with nanopure water, three times, to remove unreacted BS^3 molecules. Finally, 30 µL of biotin-labeled β-Gal was incubated with the microwells for one hour, which were then washed three times in 1× TBST, followed by three washes in phosphate buffer.
# (§3) The activity assay of surface-bound β-Gal was performed on a SpectraMax M5 96-well plate reader (Molecular Device, Sunnyvale, CA) by adding 100 µL of 100 µM RBG into the wells. The relative amount of surface-bound β-Gal was measured using an enzyme linked immunosorbant assay (ELISA). β-Gal was first labeled with biotin. Alkaline phosphatase-conjugated strepavidin (0.4 mg/ml) was diluted at 1∶1000 in 1× PBS, 0.05% (v/v) Tween 20. Next, 30 µL of streptavidin solution was added to the β-Gal-bound wells and incubated for one hour at room temperature. The streptavidin solution was then removed and the plate was washed three times with TBST buffer and three times with TBS buffer. Then, 200 µL of 1 mM PNPP was added to each well. The alkaline phosphatase activity was subsequently measured by reading the absorbance increase at 405 nm on the M5 plate reader. The β-Gal binding level was determined from the activity of alkaline phosphatase-conjugated strepavidin bound to the wells.
# β-galactosidase (β-Gal) [2] = target: T1, β-galactosidase (β-Gal); type: biochemical, E. coli; set-up: biotin (chemical label by Sulfo-NHS-biotin on amines, about two per enzyme); purchased Sigma (St. Louis, MO); conditions: for Enzyme activity (Norm.) / Surface specific activity (Norm.): microarray of 10,000 peptides; for Enzyme activity (Norm.): selection described in reference [13]; for Surface specific activity (Norm.): total bound enzyme activity divided by total binding intensity
# Description: (§4) Peptide microarrays containing 132, 20-mer single-point variants of the YHNN peptide were generated using our established, in-house printing method. […] Synthesized peptides (70% purity) were purchased from Sigma. The last three carboxy-terminal positions of each peptide constituted a glycine-serine-cysteine (GSC) linker, used for conjugating the peptides to amino-silane surfaces through the C-terminal cysteine via a maleimide linker, Sulfo-SMCC (Pierce, Rockford, IL). A Telechem Nanoprint60 was used to spot approximately 500 pL of 1 mg/mL peptide prepared in 1× PBS for each feature on glass slides with 48 Telechem series SMP2 style 946 titanium pins.
# (§5) Enzyme assays on the microarrays were performed as described in the previous work. […] The array was incubated with a solution containing 10 nM Alexa™ 647- labeled β-Gal for two hours, allowing the enzyme to bind with peptides on the array surface. After washing off unbound enzymes, a fluorescent substrate analogue (FDG) was mixed with a 5% PVA solution and spin-coated onto the array surface for monitor the enzyme activity. The FDG molecules (substrate) in the PVA layer were converted to fluorescein (product), by the active enzymes bound to specific peptides on the array surface. The fluorescein molecules remained localized because of the PVA viscosity. Both the relative binding level of Alexa™ 647-labeled enzyme and the relative amount of fluorescein produced during the incubation period were determined by dual color scanning. Each array experiment was repeated at least three times under the same conditions for statistical analysis.
# β-galactosidase (β-Gal) [3] = target: T1, β-galactosidase (β-Gal); type: binding, E. coli; set-up: biotin (chemical label by Sulfo-NHS-biotin on amines, about two per enzyme); purchased Sigma (St. Louis, MO); conditions: for Enzyme binding (Norm.): microarray of 10,000 peptides, selection described in reference [13]
# Description: as §4, §5
# β-galactosidase (β-Gal) [4] = target: T1, β-galactosidase (β-Gal); type: biochemical, E. coli; set-up: biotin (chemical label by Sulfo-NHS-biotin on amines, about two per enzyme); purchased Sigma (St. Louis, MO); conditions: for Specific activity (Norm.): total bound enzyme activity divided by total binding intensity; for Specific activity (Norm.) / Activity (Norm.): normalized to amine surface 8; for Activity (Norm.): β-Gal immobilized on surface-modified microwells, 25°C
# Description: Figure 1 Enzyme immobilization on peptide-modified surfaces. (a) The overall process for conjugating peptides to aminated microwells through specific reactions between C-terminal cysteines and maleimide-activated surfaces. (b) Activity of β-Gal immobilized on different surfaces. 25 nM β-Gal is first incubated with modified microwells for one hour and then enzyme activity is measured at 25°C as a function of time using 100 µM Resorufin β-D-galactopyranoside as the substrate. YHNN, QYHH, RVFK, PASM and EFSN represent β-Gal bound to various peptide-modified surfaces (see text). […] AMINE represents enzyme bound noncovalently to an aminated surface. […] Each subunit is labeled with a unique color showing the symmetry of the β-Gal structure. […] The substrate-binding sites of β-Gal are circled with right color (Glu461, Met502, Tyr503 and Glu537) according to reference 16.
# as §1, §2, §3
# β-galactosidase (β-Gal) [5] = target: T1, β-galactosidase (β-Gal)
# Description: Figure 2 Point-variant screening of a lead peptide, YHNN. β-Gal was bound to a microarray containing 132 YHNN variants and its activity was measured. (a) The activity of bound β-Gal on microarrays as a function of the amount of enzyme bound to a particular variant feature at room temperature. […] All data is normalized to the binding and activity values for the lead peptide, YHNN. (b) Thermal-stability assay. β-Gal was bound to the microarray containing YHNN variants as in (a) at room temperature, followed by incubation in phosphate buffer at 55°C for one hour. Enzyme activity was then assayed at room temperature. […] (c) pH activity range assay. YHNN variant microarrays were bound to β-Gal as in (a) and incubated at room temperature in buffers with pHs ranging from 6 to 9 for one hour and then assayed for activity at the pH of incubation.
# The library of single-point variants was also screened for enhanced thermal or pH stability of immobilized β-Gal. For thermal stability screening, enzyme was bound to microarrays containing the 132 single-point variants, at room temperature, and then the arrays were incubated at 55°C for one hour and assayed for activity at room temperature.
# β-galactosidase (β-Gal) [6] = target: T1, β-galactosidase (β-Gal); type: biochemical, E. coli; set-up: biotin (chemical label by Sulfo-NHS-biotin on amines, about two per enzyme); purchased Sigma (St. Louis, MO); conditions: read-out: apparent Km of β-Gal; peptide-modified iodoacetyl resin or free enzyme, ~150 pM enzyme, RBG 3-400 µM, 25 °C
# Description: The determination of the enzyme kinetic constants (KM and kcat) of immobilized β-Gal was performed on peptide-modified iodoacetyl polyacrylamide resin (UltraLink, Pierce, 50–80 µm diameter). To modify the bead surface with peptide, peptide solutions were incubated with iodoacetyl resin for one hour in 50 mM Tris buffer, 5 mM EDTA, pH 8.5. The unreacted iodacetyl groups were then capped with 50 mM L-cysteine. The amount of peptide immobilized on a bead surface was determined by comparing the peptide concentration of the unbound fraction (the remaining free peptide concentration after binding to the surface) to the starting concentration through absorbance changes at 280 nm. β-Gal was captured on the peptide-modified beads using the same protocol which immobilized the enzyme in the microwells, above. The amount of bead-immobilized β-Gal was measured by comparing the protein concentration of the unbound fraction to the starting protein concentration, determined at 280 nm. KM and Vmax (and thus kcat, using the total enzyme concentration) of β-Gal immobilized on peptide-modified beads were determined by fitting the activity vs. substrate concentration curves in the GraphPad program using the fitting equation of “Y = Vmax*X/(Km+X)”.
# Colored curves: Curve fit determining the Michaelis constants of β-Gal immobilized […]
# The enzyme activities are measured as a function of the concentration of […]
# β-galactosidase (β-Gal) [7] = target: T1, β-galactosidase (β-Gal); test: biochemical; type: binding, E. coli; set-up: biotin (chemical label by Sulfo-NHS-biotin on amines, about two per enzyme); purchased Sigma (St. Louis, MO)
# Description: as §3
# [8] = peptide conjugated to aminated microwell
# [9] = microarray of 132 single-point variants, room temperature
# [10] = peptide-modified aminated microwell
# T1 sequence (P00722 2-1024): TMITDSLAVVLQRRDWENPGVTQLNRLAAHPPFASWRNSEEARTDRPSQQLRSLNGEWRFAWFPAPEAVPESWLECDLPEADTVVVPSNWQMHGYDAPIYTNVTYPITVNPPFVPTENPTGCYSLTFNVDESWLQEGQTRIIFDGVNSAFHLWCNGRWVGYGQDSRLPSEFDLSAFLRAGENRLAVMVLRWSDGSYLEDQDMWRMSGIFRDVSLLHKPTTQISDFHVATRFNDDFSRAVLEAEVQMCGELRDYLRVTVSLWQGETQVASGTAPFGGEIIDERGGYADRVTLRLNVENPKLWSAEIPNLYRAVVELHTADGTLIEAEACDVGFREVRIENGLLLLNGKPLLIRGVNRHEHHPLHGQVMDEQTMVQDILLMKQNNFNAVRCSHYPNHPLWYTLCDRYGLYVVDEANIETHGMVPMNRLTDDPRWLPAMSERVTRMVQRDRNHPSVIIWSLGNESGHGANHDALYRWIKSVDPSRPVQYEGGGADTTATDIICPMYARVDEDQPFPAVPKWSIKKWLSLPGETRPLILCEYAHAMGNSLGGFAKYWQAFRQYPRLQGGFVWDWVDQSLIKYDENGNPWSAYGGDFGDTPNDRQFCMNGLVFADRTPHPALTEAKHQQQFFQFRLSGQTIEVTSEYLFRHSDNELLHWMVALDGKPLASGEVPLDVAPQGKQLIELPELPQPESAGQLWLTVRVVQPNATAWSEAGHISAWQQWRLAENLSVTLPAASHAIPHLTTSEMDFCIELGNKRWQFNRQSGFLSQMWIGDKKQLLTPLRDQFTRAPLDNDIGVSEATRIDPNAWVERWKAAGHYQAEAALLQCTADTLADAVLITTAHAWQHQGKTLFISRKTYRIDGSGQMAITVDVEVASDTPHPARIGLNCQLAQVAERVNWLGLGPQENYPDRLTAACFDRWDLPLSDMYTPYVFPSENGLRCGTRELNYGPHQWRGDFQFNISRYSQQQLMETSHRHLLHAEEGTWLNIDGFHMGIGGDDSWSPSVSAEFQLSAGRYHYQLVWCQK
sequence,measurement,setting,value
YHNNPGFRYMQQNKLHHGSC [Peptide V9Y],binding of immobilized β-Gal relative to YHNN,β-galactosidase (β-Gal) [1]; [8],~2 fold
same,specific activity of bound β-Gal relative to YHNN lead peptide,β-galactosidase (β-Gal) [2]; [9],~3 fold
same,binding of β-Gal relative to YHNN lead peptide,β-galactosidase (β-Gal) [3]; [9],1.5 fold
same,specific activity of immobilized β-Gal relative to YHNN,β-galactosidase (β-Gal) [4]; [8],~2 fold
same,total bound enzymatic activity relative to the NHS surface,β-galactosidase (β-Gal) [4]; [10],~12 fold
same,total bound enzymatic activity relative to the amine surface,β-galactosidase (β-Gal) [4]; [10],more than 5 fold
same,total activity of the bound enzyme relative to YHNN,"β-galactosidase (β-Gal) [4]; peptide-modified aminated microwell, 100 µM RBG",~5 fold
same,total bound enzyme activity compared with YHNN,β-galactosidase (β-Gal) [4]; single-point variants on aminated microwell surfaces,improvement
RVFKRYKRWLHVSRYYFGSC,Binding affinity (Norm.),β-galactosidase (β-Gal) [1],0.9±0.05
same,Enzyme activity (Norm.),β-galactosidase (β-Gal) [2],0.9
same,Surface specific activity (Norm.),β-galactosidase (β-Gal) [2],0.08
same,Enzyme binding (Norm.),β-galactosidase (β-Gal) [3],50.3
same,Specific activity (Norm.),β-galactosidase (β-Gal) [4],0.1±0.01
same,Activity (Norm.),β-galactosidase (β-Gal) [4]; 100 µM RBG,0.1±0.01
YHNNPGFRVMQANKLHHGSC [Peptide Q12A],specific activity increase of bound β-Gal compared to YHNN lead peptide at pH 6,β-galactosidase (β-Gal) [5]; microarray incubated one hour at pH 6 and assayed at that pH,4.1 fold
same,specific activity increase of bound β-Gal compared to YHNN lead peptide at pH 9,β-galactosidase (β-Gal) [5]; microarray incubated one hour at pH 9 and assayed at that pH,2.8 fold
YHNNPGFRVMQQNKLHHGSC [YHNN],Km,β-galactosidase (β-Gal) [6],~240 µM
same,Kd,β-galactosidase (β-Gal) [7],~5 nM
PASMFSYFKKQGYYYKLGSC,Binding affinity (Norm.),β-galactosidase (β-Gal) [1],0.5±0.1
same,Enzyme activity (Norm.),β-galactosidase (β-Gal) [2],2.3
same,Surface specific activity (Norm.),β-galactosidase (β-Gal) [2],0.16
same,Enzyme binding (Norm.),β-galactosidase (β-Gal) [3],63.9
same,Specific activity (Norm.),β-galactosidase (β-Gal) [4],0.5±0.1
same,Activity (Norm.),β-galactosidase (β-Gal) [4]; 100 µM RBG,0.3±0.06
QYHHFMNLKRQGRAQAYGSC [QYHH],Km,β-galactosidase (β-Gal) [6],250 µM
same,Kd,β-galactosidase (β-Gal) [7],~4 nM
EFSNPTAQVFPDFWMSDGSC,Binding affinity (Norm.),β-galactosidase (β-Gal) [1],0.1±0.01
same,Enzyme activity (Norm.),β-galactosidase (β-Gal) [2],0.7
same,Enzyme binding (Norm.),β-galactosidase (β-Gal) [3],0.4
same,Specific activity (Norm.),β-galactosidase (β-Gal) [4],0.4±0.1
same,Activity (Norm.),β-galactosidase (β-Gal) [4]; 100 µM RBG,0.05±0.01
